Where no end group is shown, it is not given here.
Legend:
[1] = system: mAb 8C1; test: MIA: 8C1 reactivity with OspC-derived peptides / alanine scan
[2] = system: B. burgdorferi seropositive serum samples; test: MIA: Lyme disease-positive human serum IgG binding to Ala-substituted 130–150 peptides; conditions: n = 26 sera, 1:100

Row | Substance | 8C1 reactivity with OspCA peptide [1] | Effect of Ala substitution on peptide recognition by human serum samples [2]
1 | 130–150: OspCA-derived peptide composed of residues 130-150 (CSETFTNKLKEKHTDLGKEGV; UniProt Q07337 130-150, looked up, fragment) | reacted strongly | 
2 | D144: 130–150 peptide with single Ala substitution at D144 (CSETFTNKLKEKHTALGKEGV; also: biotinylated, site not given here; UniProt Q07337 130-150, looked up, variant D144A) |  | negatively affected
3 | E140: 130–150 peptide with single Ala substitution at E140 (CSETFTNKLKAKHTDLGKEGV; also: biotinylated, site not given here; UniProt Q07337 130-150, looked up, variant E140A) |  | negatively affected

Source: PMC11960070 (Microbiology Spectrum, 2025)
